Test results taken from PubChem BioAssay (NCI).
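The concentration for 50% growth inhibition is given as GI50. The concentration for full growth arrest is given as TGI.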

Experiments:
Test in all cases: growth of human tumour cells (NCI), 384-well format
[1] = tested on: MDA-MB-231 breast
[2] = tested on: KM12 colon
[3] = tested on: NCI-H522 lung
[4] = tested on: A549 NSCLC
[5] = tested on: SNB-75 CNS
[6] = tested on: BT-549 breast
[7] = tested on: IGROV1 ovarian
[8] = tested on: U251 glioblastoma
[9] = tested on: HS 578T breast
[10] = tested on: HT29 colon
[11] = tested on: SF-539 CNS
[12] = tested on: UO-31 renal
[13] = tested on: MOLT-4 leukemia

Structure (SMILES) | GI50 [1] [nM] | TGI [1] [nM] | GI50 [2] [nM] | TGI [2] [nM] | GI50 [3] [nM] | TGI [3] [nM] | GI50 [4] [nM] | TGI [4] [nM] | GI50 [5] [nM] | TGI [5] [nM] | GI50 [6] [nM] | TGI [6] [nM] | GI50 [7] [nM] | TGI [7] [nM] | GI50 [8] [nM] | TGI [8] [nM] | GI50 [9] [nM] | TGI [9] [nM] | GI50 [10] [nM] | TGI [10] [nM] | further results
CS(=O)(=O)N1CCN(Cc2cc3nc(-c4cccc5[nH]ncc45)nc(N4CCOCC4)c3s2)CC1 | 2130 | > 100000 | 888 | > 100000 | 391 | 7580 | 533 | > 100000 | 102 | 533 | 202 | 2030 | 38.6 | 215 | 2340 | > 100000 | 295 | 2150 | 744 | 14700 | GI50 [11]: 446 nM; TGI [11]: > 100000 nM; GI50 [12]: 478 nM; TGI [12]: 9800 nM; GI50 [13]: 82.2 nM; TGI [13]: 363 nM
O=C(CCCCCCC(=O)N/N=C/c1ccc(N(c2ccccc2)c2ccccc2)cc1)NO | 1900 | 4600 | 2630 | 9170 | 1440 | 4340 | 1840 | 3830 | 2820 | 7800 | 2420 | 4880 | 413 | 1460 | 1610 | 3070 | 2110 | 4370 | 1800 | 3450 | GI50 [11]: 2150 nM; TGI [11]: 4880 nM; GI50 [12]: 1730 nM; TGI [12]: 8200 nM; GI50 [13]: 471 nM; TGI [13]: 1510 nM
